Results from patent publication US8877748B2, “Heterocyclic fused anthraquinone derivatives, manufacturing method and pharmaceutical composition using thereof” (National Defense Medical Center, priority 2012, dated 2014).

How the values were obtained:
[1] = test system: PC-3 prostate cancer cell line; assay: SRB assay cell viability, PC-3 prostate cancer cell line; assay type: cell-based, human; conditions: Homo sapiens, PC-3 prostate cancer cell line, Table II prints no unit, μM printed, read-out: SRB assay: 50% inhibition of cancer cell proliferation of sample concentration (IC50) of PC-3 prostate cancer cell line
EKVX = assay: NCI one-dose screening, non-small cell lung cancer EKVX; assay type: cell-based, human; conditions: 10 μM
HOP-62 = assay: NCI one-dose screening, non-small cell lung cancer HOP-62; assay type: cell-based, human; conditions: 10 μM
NCI-H226 = assay: NCI one-dose screening, non-small cell lung cancer NCI-H226; assay type: cell-based, human; conditions: 10 μM
NCI-H23 = assay: NCI one-dose screening, non-small cell lung cancer NCI-H23; assay type: cell-based, human; conditions: 10 μM
NCI-H522 = assay: NCI one-dose screening, non-small cell lung cancer NCI-H522; assay type: cell-based, human; conditions: 10 μM
A549/ATCC = assay: NCI one-dose screening, non-small cell lung cancer A549/ATCC; assay type: cell-based, human; conditions: 10 μM
COLO 205 = assay: NCI one-dose screening, colon cancer COLO 205; assay type: cell-based, human; conditions: 10 μM
HCC-2998 = assay: NCI one-dose screening, colon cancer HCC-2998; assay type: cell-based, human; conditions: 10 μM
HCT-116 = assay: NCI one-dose screening, colon cancer HCT-116; assay type: cell-based, human; conditions: 10 μM
HCT-15 = assay: NCI one-dose screening, colon cancer HCT-15; assay type: cell-based, human; conditions: 10 μM
HT29 = assay: NCI one-dose screening, colon cancer HT29; assay type: cell-based, human; conditions: 10 μM
SF-539 = assay: NCI one-dose screening, CNS cancer SF-539; assay type: cell-based, human; conditions: 10 μM
SNB-19 = assay: NCI one-dose screening, CNS cancer SNB-19; assay type: cell-based, human; conditions: 10 μM
SNB-75 = assay: NCI one-dose screening, CNS cancer SNB-75; assay type: cell-based, human; conditions: 10 μM
U251 = assay: NCI one-dose screening, CNS cancer U251; assay type: cell-based, human; conditions: 10 μM
LOX IMVI = assay: NCI one-dose screening, melanoma LOX IMVI; assay type: cell-based, human; conditions: 10 μM
MALME-3M = assay: NCI one-dose screening, melanoma MALME-3M; assay type: cell-based, human; conditions: 10 μM
M14 = assay: NCI one-dose screening, melanoma M14; assay type: cell-based, human; conditions: 10 μM
UACC-62 = assay: NCI one-dose screening, melanoma UACC-62; assay type: cell-based, human; conditions: 10 μM
UACC-257 = assay: NCI one-dose screening, melanoma UACC-257; assay type: cell-based, human; conditions: 10 μM
SK-MEL-2 = assay: NCI one-dose screening, melanoma SK-MEL-2; assay type: cell-based, human; conditions: 10 μM
SK-MEL-28 = assay: NCI one-dose screening, melanoma SK-MEL-28; assay type: cell-based, human; conditions: 10 μM
SK-MEL-5 = assay: NCI one-dose screening, melanoma SK-MEL-5; assay type: cell-based, human; conditions: 10 μM
IGROV1 = assay: NCI one-dose screening, ovarian cancer IGROV1; assay type: cell-based, human; conditions: 10 μM
OVCAR-5 = assay: NCI one-dose screening, ovarian cancer OVCAR-5; assay type: cell-based, human; conditions: 10 μM
OVCAR-8 = assay: NCI one-dose screening, ovarian cancer OVCAR-8; assay type: cell-based, human; conditions: 10 μM
SK-OV-3 = assay: NCI one-dose screening, ovarian cancer SK-OV-3; assay type: cell-based, human; conditions: 10 μM
786-O = assay: NCI one-dose screening, renal cancer 786-O; assay type: cell-based, human; conditions: 10 μM
CAKI-1 = assay: NCI one-dose screening, renal cancer CAKI-1; assay type: cell-based, human; conditions: 10 μM
ACHN = assay: NCI one-dose screening, renal cancer ACHN; assay type: cell-based, human; conditions: 10 μM
SN12C = assay: NCI one-dose screening, renal cancer SN12C; assay type: cell-based, human; conditions: 10 μM
TK-10 = assay: NCI one-dose screening, renal cancer TK-10; assay type: cell-based, human; conditions: 10 μM
UO-31 = assay: NCI one-dose screening, renal cancer UO-31; assay type: cell-based, human; conditions: 10 μM
RXF, 393 = assay: NCI one-dose screening, renal cancer RXF, 393; assay type: cell-based, human; conditions: 10 μM
MCF7 = assay: NCI one-dose screening, breast cancer MCF7; assay type: cell-based, human; conditions: 10 μM
MDA-MB-231/ATCC = assay: NCI one-dose screening, breast cancer MDA-MB-231/ATCC; assay type: cell-based, human; conditions: 10 μM
MDA-MB-468 = assay: NCI one-dose screening, breast cancer MDA-MB-468; assay type: cell-based, human; conditions: 10 μM
NCl/ADR-RES = assay: NCI one-dose screening, breast cancer NCl/ADR-RES; assay type: cell-based, human; conditions: 10 μM; listed under Ovarian cancer
BT-549 = assay: NCI one-dose screening, breast cancer BT-549; assay type: cell-based, human; conditions: 10 μM
T-47D = assay: NCI one-dose screening, breast cancer T-47D; assay type: cell-based, human; conditions: 10 μM
MDA, -MB-435 = assay: NCI one-dose screening, breast cancer MDA, -MB-435; assay type: cell-based, human; conditions: 10 μM; listed under Melanoma
human tumor cell lines = assay: NCI one-dose screening, Mean / Delta / Range of growth percent over all tested cell lines; assay type: cell-based; conditions: 10 μM; for Growth Percent Delta: delta over all cell lines; for Growth Percent Mean: mean over all cell lines; for Growth Percent Range: range over all cell lines

O=C1c2ccccc2C(=O)c2c1cc(Sc1cccc(Cl)c1)c1nsnc21 [C37, 4-(3-chlorophenyl-thio)anthra[2,1-c][1,2,5] thiadiazol-6,11-dione]
IC50 [1]: 5.64 µM
Growth Percent EKVX (EKVX): 43.65%
Growth Percent HOP-62 (HOP-62): 42.12%
Growth Percent NCI-H226 (NCI-H226): 78.07%
Growth Percent NCI-H23 (NCI-H23): −26.91%
Growth Percent NCI-H522 (NCI-H522): 7.18%
Growth Percent A549/ATCC (A549/ATCC): 107.48%
Growth Percent COLO 205 (COLO 205): 105.98%
Growth Percent HCC-2998 (HCC-2998): 101.66%
Growth Percent HCT-116 (HCT-116): −67.84%
Growth Percent HCT-15 (HCT-15): 17.97%
Growth Percent HT29 (HT29): 102.17%
Growth Percent SF-539 (SF-539): −52.72%
Growth Percent SNB-19 (SNB-19): 56.88%
Growth Percent SNB-75 (SNB-75): 26.08%
Growth Percent U251 (U251): −69.50%
Growth Percent LOX IMVI (LOX IMVI): −59.25%
Growth Percent MALME-3M (MALME-3M): −86.56%
Growth Percent M14 (M14): −76.44%
Growth Percent UACC-62 (UACC-62): −64.98%
Growth Percent UACC-257 (UACC-257): −84.59%
Growth Percent SK-MEL-2 (SK-MEL-2): −53.17%
Growth Percent SK-MEL-28 (SK-MEL-28): 24.96%
Growth Percent SK-MEL-5 (SK-MEL-5): 19.02%
Growth Percent IGROV1 (IGROV1): −13.50%
Growth Percent OVCAR-5 (OVCAR-5): 108.55%
Growth Percent OVCAR-8 (OVCAR-8): −22.92%
Growth Percent SK-OV-3 (SK-OV-3): 95.44%
Growth Percent 786-0 (786-O): −2.06%
Growth Percent CAKI-1 (CAKI-1): −3.69%
Growth Percent ACHN (ACHN): −92.53%
Growth Percent SN12C (SN12C): −66.17%
Growth Percent TK-10 (TK-10): 53.81%
Growth Percent UO-31 (UO-31): −74.79%
Growth Percent RXF 393 (RXF, 393): −27.84%
Growth Percent MCF7 (MCF7): −69.36%
Growth Percent MDA-MB-231/ATCC (MDA-MB-231/ATCC): −29.08%
Growth Percent MDA-MB-468 (MDA-MB-468): −79.19%
Growth Percent NCI/ADR-RES (NCl/ADR-RES): −15.13%
Growth Percent BT-549 (BT-549): 36.21%
Growth Percent T-47D (T-47D): −42.26%
Growth Percent MDA-MB-435 (MDA, -MB-435): −82.33%
Growth Percent Delta (human tumor cell lines): 86.78%
Growth Percent Mean (human tumor cell lines): −5.75%
Growth Percent Range (human tumor cell lines): 201.08%

CCOc1cccc(Sc2cc3c(c4nsnc24)C(=O)c2ccccc2C3=O)c1 [C50, 4-(3-ethoxy-phenylthio)anthra[2,1-c] [1,2,5]thiadiazol-6,11-dione]
IC50 [1]: > 15 µM
Growth Percent EKVX (EKVX): 102.26%
Growth Percent HOP-62 (HOP-62): 91.94%
Growth Percent NCI-H226 (NCI-H226): 90.47%
Growth Percent NCI-H23 (NCI-H23): 94.07%
Growth Percent NCI-H522 (NCI-H522): 98.19%
Growth Percent A549/ATCC (A549/ATCC): 111.48%
Growth Percent COLO 205 (COLO 205): 106.49%
Growth Percent HCC-2998 (HCC-2998): 105.49%
Growth Percent HCT-116 (HCT-116): 100.93%
Growth Percent HCT-15 (HCT-15): 103.08%
Growth Percent HT29 (HT29): 106.40%
Growth Percent SF-539 (SF-539): 93.72%
Growth Percent SNB-19 (SNB-19): 103.22%
Growth Percent SNB-75 (SNB-75): 77.25%
Growth Percent U251 (U251): 109.69%
Growth Percent LOX IMVI (LOX IMVI): 84.11%
Growth Percent MALME-3M (MALME-3M): 108.70%
Growth Percent M14 (M14): 103.80%
Growth Percent UACC-62 (UACC-62): 108.85%
Growth Percent UACC-257 (UACC-257): 126.28%
Growth Percent SK-MEL-2 (SK-MEL-2): 102.98%
Growth Percent SK-MEL-28 (SK-MEL-28): 112.20%
Growth Percent SK-MEL-5 (SK-MEL-5): 106.82%
Growth Percent IGROV1 (IGROV1): 94.67%
Growth Percent OVCAR-5 (OVCAR-5): 116.60%
Growth Percent OVCAR-8 (OVCAR-8): 112.41%
Growth Percent SK-OV-3 (SK-OV-3): 99.36%
Growth Percent 786-0 (786-O): 100.25%
Growth Percent CAKI-1 (CAKI-1): 84.23%
Growth Percent ACHN (ACHN): 103.33%
Growth Percent SN12C (SN12C): 104.76%
Growth Percent TK-10 (TK-10): 125.26%
Growth Percent UO-31 (UO-31): 76.69%
Growth Percent RXF 393 (RXF, 393): 118.35%
Growth Percent MCF7 (MCF7): 78.81%
Growth Percent MDA-MB-231/ATCC (MDA-MB-231/ATCC): 100.81%
Growth Percent MDA-MB-468 (MDA-MB-468): 108.00%
Growth Percent NCI/ADR-RES (NCl/ADR-RES): 101.92%
Growth Percent BT-549 (BT-549): 103.88%
Growth Percent T-47D (T-47D): 86.51%
Growth Percent MDA-MB-435 (MDA, -MB-435): 106.07%
Growth Percent Delta (human tumor cell lines): 25.00%
Growth Percent Mean (human tumor cell lines): 101.69%
Growth Percent Range (human tumor cell lines): 49.59%
